Experimental findings from patent US10758534B2 (Vertex Pharmaceuticals Incorporated, priority 2014, dated 2020) are described below.

In the assay the target is T1, F508del (Homo sapiens, UniProt P13569, DEL508-508).
T1 construct: expressed in transfected cells
T1 sequence (P13569 with tags, fused parts or gaps DEL508-508): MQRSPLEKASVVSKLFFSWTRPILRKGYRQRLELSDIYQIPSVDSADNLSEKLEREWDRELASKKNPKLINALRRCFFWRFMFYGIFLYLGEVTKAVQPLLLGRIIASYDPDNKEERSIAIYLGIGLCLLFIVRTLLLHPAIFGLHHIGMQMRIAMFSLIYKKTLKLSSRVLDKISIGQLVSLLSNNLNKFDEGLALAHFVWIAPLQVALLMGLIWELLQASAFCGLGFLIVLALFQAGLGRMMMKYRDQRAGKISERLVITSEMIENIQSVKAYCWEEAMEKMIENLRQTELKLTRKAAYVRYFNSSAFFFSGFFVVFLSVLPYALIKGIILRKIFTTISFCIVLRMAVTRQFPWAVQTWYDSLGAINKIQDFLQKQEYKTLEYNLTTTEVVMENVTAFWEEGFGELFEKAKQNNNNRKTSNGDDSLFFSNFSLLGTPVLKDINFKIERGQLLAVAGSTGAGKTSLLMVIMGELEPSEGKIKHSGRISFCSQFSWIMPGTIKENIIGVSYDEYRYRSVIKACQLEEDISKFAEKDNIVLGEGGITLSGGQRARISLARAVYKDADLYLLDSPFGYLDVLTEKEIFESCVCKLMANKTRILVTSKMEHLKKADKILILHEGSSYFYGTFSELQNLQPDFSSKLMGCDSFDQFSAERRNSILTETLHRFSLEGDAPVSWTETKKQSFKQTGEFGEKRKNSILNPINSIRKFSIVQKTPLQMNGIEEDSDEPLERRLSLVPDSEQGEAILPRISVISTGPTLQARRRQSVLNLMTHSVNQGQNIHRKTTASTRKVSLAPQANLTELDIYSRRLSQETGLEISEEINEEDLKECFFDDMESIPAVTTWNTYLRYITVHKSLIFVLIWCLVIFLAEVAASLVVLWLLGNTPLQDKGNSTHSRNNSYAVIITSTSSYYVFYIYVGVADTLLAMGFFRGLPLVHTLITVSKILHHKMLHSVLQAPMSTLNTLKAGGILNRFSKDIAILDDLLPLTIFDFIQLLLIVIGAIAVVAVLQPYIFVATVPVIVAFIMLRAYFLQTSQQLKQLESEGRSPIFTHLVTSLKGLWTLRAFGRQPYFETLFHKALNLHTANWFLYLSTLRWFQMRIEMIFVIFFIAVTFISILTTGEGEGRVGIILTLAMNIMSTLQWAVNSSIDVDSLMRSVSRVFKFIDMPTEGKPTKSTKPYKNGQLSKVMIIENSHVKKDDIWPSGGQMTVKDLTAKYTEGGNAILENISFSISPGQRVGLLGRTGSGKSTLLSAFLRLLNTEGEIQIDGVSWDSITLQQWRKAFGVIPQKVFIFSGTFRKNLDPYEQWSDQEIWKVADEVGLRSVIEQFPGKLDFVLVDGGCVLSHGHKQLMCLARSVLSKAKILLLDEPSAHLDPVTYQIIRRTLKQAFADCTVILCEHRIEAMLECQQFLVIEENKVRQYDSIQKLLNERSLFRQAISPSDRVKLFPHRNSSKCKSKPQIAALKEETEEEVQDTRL
In words: Protocol 1: membrane potential optical assay (FLIPR III, voltage sensing dye), identification of potentiator compounds. The assay is classed as cell-based. The settings on record: Table 3, compounds of Table 1. In a few lines:
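Mouse NIH 3T3 fibroblasts stably expressing F508del, temperature-corrected at 27 °C for 24 h, pretreated with compound, then loaded with voltage-sensing redistribution dye. Forskolin was added in a single step with a chloride gradient (chloride-free gluconate bath; Bath Solution #1 HEPES pH 7.4). Membrane-potential fluorescence read on FLIPR III.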
Regarding `CC(C)COc1cc(F)cc(-c2ccc(C(=O)NS(=O)(=O)c3cccc(N)n3)c(OC3CC4CCC3C4)n2)c1` (stereo not drawn) [Compound 1227, N-[(6-amino-2-pyridyl)sulfonyl]-6-(3-fluoro-5-isobutoxy-phenyl)-2-norbornan-2-yloxy-pyridine-3-carboxamide], the EC30 result was “+++ (“+++” means <3 uM)”.
Consider `Cc1cc(C)c(Oc2nc(-c3ccccc3Cl)ccc2C(=O)NS(=O)(=O)c2cccc(N)n2)c(C)c1` [Compound 1221, N-[(6-amino-2-pyridyl)sulfonyl]-6-(2-chlorophenyl)-2-(2,4,6-trimethylphenoxy)pyridine-3-carboxamide], for which the EC30 result is listed as “+++ (“+++” means <3 uM)”.
The result for `CC(C)COc1cc(F)cc(-c2ccc(C(=O)NS(=O)(=O)c3cccc(N)n3)c(OCCC3CCCCC3)n2)c1` [Compound 1465, N-[(6-amino-2-pyridyl)sulfonyl]-2-(2-cyclohexylethoxy)-6-(3-fluoro-5-isobutoxy-phenyl)pyridine-3-carboxamide] reads “+++ (“+++” means <3 uM)”; that for `Cc1cc(C)c(Oc2nc(-c3cccc(C(C)C)c3)ccc2C(=O)NS(=O)(=O)c2cccc(N)n2)c(C)c1` [Compound 1016, N-[(6-amino-2-pyridyl)sulfonyl]-6-(3-isopropylphenyl)-2-(2,4,6-trimethylphenoxy)pyridine-3-carboxamide], “+++ (“+++” means <3 uM)”; that for `CC(C)COc1cc(F)cc(-c2ccc(C(=O)NS(=O)(=O)N3CCC[C@H](N)C3)c(N3C[C@@H](C)CC3(C)C)n2)c1` [Compound 1435, N—[[(3S)-3-amino-1-piperidyl]sulfonyl]-6-(3-fluoro-5-isobutoxy-phenyl)-2-[(4S)-2,2,4-trimethylpyrrolidin-1-yl]pyridine-3-carboxamide], “+++ (“+++” means <3 uM)”.
Consider `CC(C)COc1cc(F)cc(-c2ccc(C(=O)NS(=O)(=O)c3cccc(N)n3)c(OC(C)c3ccc(F)cc3)n2)c1` (stereo not drawn) [Compound 867, N-[(6-amino-2-pyridyl)sulfonyl]-6-(3-fluoro-5-isobutoxy-phenyl)-2-[1-(4-fluorophenyl)ethoxy]pyridine-3-carboxamide], for which the EC30 entry is on record as “+++ (“+++” means <3 uM)”.
The result for `CCOc1cccc2c1CN(Cc1c(C)cc(C)cc1C)[C@]2(C)C(=O)NS(=O)(=O)c1ccc[nH]c1=O` [Compound 1541, (1S)-4-ethoxy-1-methyl-N-[(2-oxo-1H-pyridin-3-yl)sulfonyl]-2-[(2,4,6-trimethylphenyl)methyl]isoindoline-1-carboxamide] reads “+++ (“+++” means <3 uM)”.
The result for `CC(C)COc1cc(F)cc(-c2ccc(C(=O)NS(=O)(=O)c3cccc(N)n3)c(OCC3(C)CC3)n2)c1` [Compound 1668, N-[(6-amino-2-pyridyl)sulfonyl]-6-(3-fluoro-5-isobutoxy-phenyl)-2-[(1-methylcyclopropyl)methoxy]pyridine-3-carboxamide] reads “+++ (“+++” means <3 uM)”.
The result for `CC(C)COc1cc(F)cc(-c2ccc(C(=O)NS(=O)(=O)c3cccc(N)n3)c(OCCC(C)c3ccccc3)n2)c1` (stereo not drawn) [Compound 1689, N-[(6-amino-2-pyridyl)sulfonyl]-6-(3-fluoro-5-isobutoxy-phenyl)-2-(3-phenylbutoxy)pyridine-3-carboxamide] reads “+++ (“+++” means <3 uM)”; that for `Cc1cc(C)c(Oc2nc(-c3cc(F)cc(F)c3)ccc2C(=O)NS(=O)(=O)c2cccc(N)n2)c(C)c1` [Compound 1325, N-[(6-amino-2-pyridyl)sulfonyl]-6-(3,5-difluorophenyl)-2-(2,4,6-trimethylphenoxy)pyridine-3-carboxamide], “+++ (“+++” means <3 uM)”.
With `CCOc1cc(F)cc(-c2ccc(C(=O)NS(=O)(=O)c3cccc(N)n3)c(N3CC(C)CC3(C)C)n2)c1` (stereo not drawn) [Compound 1099, N-[(6-amino-2-pyridyl)sulfonyl]-6-(3-ethoxy-5-fluoro-phenyl)-2-(2,2,4-trimethylpyrrolidin-1-yl)pyridine-3-carboxamide], the EC30 result is on record as “+++ (“+++” means <3 uM)”.
For `COc1cncc(-c2ccc(C(=O)NS(=O)(=O)c3cccc(N)n3)c(Oc3c(C)cc(C)cc3C)n2)c1` [Compound 1115, N-[(6-amino-2-pyridyl)sulfonyl]-6-(5-methoxy-3-pyridyl)-2-(2,4,6-trimethylphenoxy)pyridine-3-carboxamide], the EC30 entry is on record as “+ (“+” means greater than 10 uM)”.
As to `COc1nc(C)ccc1S(=O)(=O)NC(=O)c1ccc(C(C)(C)C)nc1Oc1c(C)cc(C)cc1C` [Compound 1153, 6-tert-butyl-N-[(2-methoxy-6-methyl-3-pyridyl)sulfonyl]-2-(2,4,6-trimethylphenoxy)pyridine-3-carboxamide], the EC30 entry was “+++ (“+++” means <3 uM)”.
As to `CC(C)COc1cc(F)cc(-c2ccc(C(=O)NS(=O)(=O)c3ccn[nH]3)c(N3C[C@@H](C)CC3(C)C)n2)c1` [Compound 1041, 6-(3-fluoro-5-isobutoxy-phenyl)-N-(1H-pyrazol-5-ylsulfonyl)-2-[(4S)-2,2,4-trimethylpyrrolidin-1-yl]pyridine-3-carboxamide], the EC30 result is given as “+++ (“+++” means <3 uM)”.
As for `Cc1cc(C)c(Oc2nc(C(C)C(C)C)ccc2C(=O)NS(=O)(=O)c2cccc(N)n2)c(C)c1` (stereo not drawn) [Compound 1486, N-[(6-amino-2-pyridyl)sulfonyl]-6-(1,2-dimethylpropyl)-2-(2,4,6-trimethylphenoxy)pyridine-3-carboxamide], the EC30 result was “+++ (“+++” means <3 uM)”.
Consider `Cc1ccc(-c2nc(C(C)(C)C)ccc2C(=O)NS(=O)(=O)c2ccccc2O)cc1` [Compound 1175, 6-tert-butyl-N-(2-hydroxyphenyl)sulfonyl-2-(p-tolyl)pyridine-3-carboxamide], for which the EC30 entry is reported as “+++ (“+++” means <3 uM)”.
As for `CC1CN(c2ncccc2C(=O)NS(=O)(=O)c2cccc(OCc3cccc(C(F)(F)F)c3)n2)C(C)(C)C1` (stereo not drawn) [Compound 1953, N—[[6-[[3-(trifluoromethyl)phenyl]methoxy]-2-pyridyl]sulfonyl]-2-(2,2,4-trimethylpyrrolidin-1-yl)pyridine-3-carboxamide], the EC30 entry is reported as “+++ (“+++” means <3 uM)”.
The result for `Cc1ccc(-c2nc3c(cc2C(=O)NS(=O)(=O)c2ccc(N)cc2)CCCC3(C)C)cc1` [Compound 1307, N-(4-aminophenyl)sulfonyl-8,8-dimethyl-2-(p-tolyl)-6,7-dihydro-5H-quinoline-3-carboxamide] reads “++ (“++” means between 3 uM and 10 uM)”; that for `C[C@@H]1CN(c2nc(-c3cc(F)cc(F)c3F)ccc2C(=O)NS(=O)(=O)c2ccc[nH]c2=O)C(C)(C)C1` [Compound 1837, N-[(2-oxo-1H-pyridin-3-yl)sulfonyl]-6-(2,3,5-trifluorophenyl)-2-[(4S)-2,2,4-trimethylpyrrolidin-1-yl]pyridine-3-carboxamide], “+++ (“+++” means <3 uM)”; that for `C[C@@H]1CN(c2nc(C3CC(C)(C)CCC3=O)ccc2C(=O)NS(=O)(=O)c2cccnc2N)C(C)(C)C1` (stereo partly drawn) [Compound 1793, N-[(2-amino-3-pyridyl)sulfonyl]-6-(5,5-dimethyl-2-oxo-cyclohexyl)-2-[(4S)-2,2,4-trimethylpyrrolidin-1-yl]pyridine-3-carboxamide], “+++ (“+++” means <3 uM)”.
The result for `CC(C)Cc1ccn(-c2ccc(C(=O)NS(=O)(=O)c3cccc(N)n3)c(N3C[C@@H](C)CC3(C)C)n2)n1` [Compound 1411, N-[(6-amino-2-pyridyl)sulfonyl]-6-(3-isobutylpyrazol-1-yl)-2-[(4S)-2,2,4-trimethylpyrrolidin-1-yl]pyridine-3-carboxamide] reads “+++ (“+++” means <3 uM)”.
